Measured values published in paper PMC4210147, “Sequence-Specific Dimerization of a Transmembrane Helix in Amphipol A8-35” (PLoS ONE, 2014).

Experiments:
[1] = Far-UV circular dichroism, secondary structure content of GpA TM domain; assay type: physicochemical; settings: 25°C; for α-helix content: unlabeled GpA peptide 5 µM, DICHROWEB CDSSTR, reference set 7, at least three averaged scans
Procedure: CD spectra were recorded on a Jasco J-815 spectropolarimeter at 25°C in a step-scan mode using 0.1-cm path length quartz cells from Hellma (Mülheim, Germany). The concentration of unlabeled GpA peptide was 5 µM. Data points were collected at a resolution of 1 nm, an integration time of 1 s, and a bandwidth of 1 nm. Each shown spectrum results from at least three averaged scans from which buffer scans were subtracted. The measured ellipticity θ was converted to molar ellipticity [θ] by: [drawing 8] (5) where M is the molar mass, L the path length, and C the peptide concentration.
The GpA TM domain was reconstituted in 10 mM phosphate buffer (pH 7.4) containing A8-35 as well as in several solvents containing SDS, DDM, or pure TFE, which are known to stabilize α-helical structures. Prior to CD measurements, samples were treated in the same way as described above for FRET measurements. Secondary structure contents were estimated with the DICHROWEB software, [31] using both soluble and TM proteins as reference datasets (CDSSTR method, reference set 7).

[2] = system: GpA TM helix dimer; settings: ref [24], listed as GpA dimer; cited from earlier work
Description: Thermal denaturation of MPs often leads to irreversible aggregation of the MP, and guanidine hydrochloride and urea, which are frequently used in unfolding studies involving soluble proteins, do typically not denature the TM regions of MPs. This is why the thermodynamic stability of integral MPs within membrane-mimetic systems is often assessed by titrating increasing concentrations of the anionic detergent SDS to MPs dissolved in a mild detergent, such as DDM [24], [40]-[44]. SDS is able to form mixed micelles with other detergents typically used for MP solubilization. […] This indicates a strong destabilizati ...

[3] = biological target: T1, human GpA TM domain (Homo sapiens, UniProt P02724); experiment: Steady-state FRET, GpA TM helix dimer dissociation upon addition of SDS (mixed A8-35/SDS aggregates); assay type: binding
T1 construct: purchased Peptide Specialty Laboratories, Heidelberg, Germany; host or cells: chemical synthesis (custom peptide)
T1 sequence (P02724 88-120 limits assumed) 1: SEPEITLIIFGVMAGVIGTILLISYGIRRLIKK
T1 sequence (P02724 88-120 limits assumed) 2: T1 sequence (P02724 88-120 limits assumed) 1
Procedure: For Förster resonance energy transfer (FRET) measurements, equal concentrations of FL- and TAMRA-labeled GpA TM domains were used. Concentrations of the peptide stock solutions were determined from absorbance measurements on a Perkin Elmer Lambda 35 UV/VIS spectrophotometer. In all experiments, we used 0.25 µM for each of the two labeled GpA peptides. Peptides dissolved in TFE and A8-35 dissolved in ethanol were mixed, and organic solvents were removed under a gentle stream of nitrogen gas. Residual solvent traces were removed by vacuum desiccation overnight. The dried peptide/polymer film was then hydrated in 10 mM HEPES buffer (pH 7.4) containing 150 mM NaCl.
After at least 2 h of incubation at 37°C and 10 min of centrifugation at 16,000 g, steady-state fluorescence measurements were performed with the supernatant at 25°C on a Horiba Fluoromax 4 system with both excitation and emission slits at 3 nm. The excitation wavelength was set at 439 nm, and emission spectra were recorded from 480 to 650 nm. For FRET measurements with SDS, several concentrations of SDS, both below and above the CMC determined for the given buffer conditions, were used, and hydrated samples were incubated overnight.
Energy transfer E was calculated using the donor fluorescence intensities at 525 nm in presence and absence of acceptor according to [drawing 1] (1)
FD is the fluorescence intensity of the donor sample, and FDA is the fluorescence intensity of the sample containing donor and acceptor GpA TM domains at equal concentrations. The energy transfer of sequence-specific TM helix dimerization, ED, can be expressed as: [drawing 2] (2) where f D is the fraction of dimeric TM helices, P D is the probability of donor quenching when the peptides form a dimer, and E R is the energy transfer in the dimer.
The probability P D of donor quenching depends on the molar ratio of the acceptor peptides [drawing 3] , where [a] and [d] are the concentrations of acceptor and donor peptides, respectively. If the distance of the fluorophores in the dimer is much smaller than the Förster radius, as is the case here, ER can be taken as unity.
The fraction of dimers can be written as [drawing 4] , where [D] is the concentration of dimeric peptides and [T] the total peptide concentration.
The dissociation constant, K D, is given by [drawing 6] (4) where the monomer concentration is [drawing 7] .
This indicates a strong destabilization of the GpA dimer after addition of SDS, resulting in dissociation of GpA TM dimers in mixed A8-35/SDS aggregates. […]
Figure 6 Dissociation of the GpA TM domain in APol upon addition of SDS. […] SDS was added to preformed APol/GpA complexes, and emission spectra were recorded at 25°C after incubation at 37°C. […]

## CC[C@H](C)[C@H](NC(=O)CNC(=O)[C@H](Cc1ccc(O)cc1)NC(=O)[C@H](CO)NC(=O)[C@@H](NC(=O)[C@H](CC(C)C)NC(=O)[C@H](CC(C)C)NC(=O)[C@@H](NC(=O)[C@@H](NC(=O)CNC(=O)[C@@H](NC(=O)[C@@H](NC(=O)CNC(=O)[C@H](C)NC(=O)[C@H](CCSC)NC(=O)[C@@H](NC(=O)CNC(=O)[C@H](Cc1ccccc1)NC(=O)[C@@H](NC(=O)[C@@H](NC(=O)[C@H](CC(C)C)NC(=O)[C@@H](NC(=O)[C@@H](NC(=O)[C@H](CCC(=O)O)NC(=O)[C@@H]1CCCN1C(=O)[C@H](CCC(=O)O)NC(=O)[C@@H](N)CO)[C@@H](C)CC)[C@@H](C)O)[C@@H](C)CC)[C@@H](C)CC)C(C)C)C(C)C)[C@@H](C)CC)[C@@H](C)O)[C@@H](C)CC)[C@@H](C)CC)C(=O)N[C@@H](CCCNC(=N)N)C(=O)N[C@@H](CCCNC(=N)N)C(=O)N[C@@H](CC(C)C)C(=O)N[C@H](C(=O)N[C@@H](CCCCN)C(=O)N[C@@H](CCCCN)C(=O)O)[C@@H](C)CC [GpA TM domain]
[1]; 5 µM A8-35, 10 mM phosphate buffer pH 7.4
  α-helix content: 67%
[1]; A8-35 concentrations above 5 µM, CD, 5 µM peptide
  effect of higher APol concentrations on peptide's secondary structure: did not significantly affect the peptide's secondary structure
[1]; in 5 mM DDM
  α-helix content: 79%
[1]; in 5 mM SDS
  α-helix content: 76%
[1]; in TFE (pure)
  α-helix content: 62%
[2]
  dissociation of GpA dimer in mixed DDM/SDS micelles: completely unfolded
[3]; 20 µM A8-35 with SDS, analyzed concentration range, compared with DDM/SDS
  complete unfolding of GpA dimer in APol/SDS mixed micelles: not observed in case of APol/SDS mixed micelles
[3]; SDS exceeding 1.5 mM, 20 µM A8-35, 0.5 µM labeled GpA TM domain, 25°C, n = 3
  fraction of dimeric GpA: about 0.3
[3]; no SDS vs SDS exceeding 1.5 mM, 20 µM A8-35, 0.5 µM labeled GpA TM domain, 25°C, n = 3
  increase in the dissociation constant upon SDS addition: about one order of magnitude
[3]; no SDS, 20 µM A8-35, 0.5 µM labeled GpA TM domain, 25°C, n = 3
  fraction of dimeric GpA: 0.7
